# Key:
# [1] = test system: Macaca mulatta (Rhesus monkey) exposed to 6 Gy γ-radiation
# Excerpt: Treatment of whole body lethal radiation and characterization of mortality surrogate markers. Two groups of 10 Macaca mulatta (Rhesus monkey) were exposed to a 6 Gy dose of γ-radiation from a ^60Co source. This dose is an LD50/30 dose for this species. […] The age range was 1.75-5.0 years at the onset of treatment.
# Test article was an aqueous suspension in vehicle. The vehicle article consists of a solution of sodium chloride (0.9% w/v), carboxymethylcellulose (0.5% w/v), polysorbate 80 (2% v/v), benzalkonium chloride (0.02% v/v) and sodium phosphate (10 mM, pH 6.5). Immediately prior to drawing into a syringe, the test article formulation was briefly vortexed to uniformly distribute sedimented test article. Once drawn into a syringe, the test article was administered within 10 minutes. Just prior to injection, the syringe containing the test article was rotated end-over-end to uniformly disperse the compound.
# Whole body radiation. The animals were exposed to ionizing as follows. Dosimetry measurements using phantoms, the dose rate and duration of irradiation and the actual time of irradiation for each individual animal was recorded. Animals were fasted overnight prior to whole-body irradiation and fed upon return to the housing facility. Animals were transferred to the treatment facility in a transport vehicle with controlled environment. During transportation, each animal was individually housed in a stainless steel squeeze back cage. Temperature in the transport vehicle was automatically recorded every 5 minutes during transportation. Clinical signs were monitored immediately before and after transportation.
# The animals received a midline treatment dose of 600 cGy. The dose rate of the ^60Co gamma source was about 60 cGy per minute and the actual rate was recorded for each animal. To obtain a homogenous dose distribution, the radiation treatment was divided in two parts. First, the animal received half of the dose by anteroposterior irradiation. The second half of the dose was delivered by posteroanterior irradiation. Once the treatment was completed, animals were returned to the transport vehicle and transported to the housing facility. The radiation dose was calibrated using an acrylic phantom placed in the same experimental set up that was used for animal irradiation.
# The animals received the vehicle control once daily for five consecutive days by intramuscular injections. The first injection on day 1 was administered at 2-3 hours after irradiation. The dose volume was 0.15 mL/kg for all animals. The dose volume was evenly divided between two distinct sites (approximately 0.075 mL/kg per site). The actual volume delivered was calculated and adjusted based on each animal's body weight.
# During the pre-treatment period cage side observations of clinical signs were performed once daily. A detailed clinical examination was performed on all animals once prior to irradiation on day 1, day 9, weekly thereafter and at day 40 and 41. After radiation, the animals and clinical signs were observed twice a day during the protocol or as often as deemed necessary. Moribund animals were euthanized for humane reasons.
# [2] = test system: lethally-irradiated female B6D2F1 mice; assay: Survival of lethally-irradiated mice (10 Gy total body irradiation, 137Cs); assay type: in vivo; conditions: groups of 12
# Method: Exposure of rodents to ionizing radiation exposure. The effect of selected F1Cs on survival of lethally-irradiated female B6D2F1 mice were compared to control animals treated with vehicle alone. The animals were exposed to 10 Gy of total body irradiation at 2.5 Gy/min using a ^137Cs source. […] For Group 4, test article was administered as a 50 μL volume, by intramuscular injection for three consecutive days. The formulation was a suspension containing 0.1% w/v carboxymethyl-cellulose, 0.9% w/v sodium chloride and 0.05% v/v phenol. The formulations were agitated to uniformly resuspend the F1C before syringing, and injected into animals within a few minutes of drawing into the syringe to prevent settling in the syringe.
# The groups of animals were treated as follows.
# [3] = test system: female BALB/cByJ mice, DTH response to topical oxazolone challenge; assay: Modulation of delayed type hypersensitivity (oxazolone ear challenge); assay type: in vivo; conditions: difference right minus left ear, 24 hours following oxazolone challenge; vehicle alone 0.225 mm
# Method: Modulation of delayed type hypersensitivity. The capacity of F1Cs to modulate delayed type hypersensitivity (DTH) is determined in mice. Groups of five female BALB/cByJ mice (20-25 grams) are anesthetized and 100 μL of a 3% solution of oxazolone is applied on day 0 to the shaved abdomen and dried. Seven days later, on day 7, the mice are challenged by applying 5 μL of oxazolone topically to each side of the right ear. The F1C (at about 20-100 mg/mL) in vehicle is administered by subcutaneous injection (2 mg/day) one time on day 6, 24 hours before the oxazolone challenge. The vehicle as a non-aqueous suspension of the F1C in, e.g., 2% benzyl alcohol w/v, 0.1% Brij 96 w/v and equal volumes of PEG 300 and propylene glycol.
# Dexamethasone in saline (0.2 mg/mL) is administered daily for 9 days (day −1 to 7), first dose 24 hours before sensitization, last dose at challenge by subcutaneous injection (0.01 mg/dose, 50 μl/injection). On Day 8, 24 hours following the oxazolone challenge, both the right and left ear thicknesses are measured using a micrometer caliper and the differences are determined. The differential ear thickness is measured as an indicator of the DTH response to topical oxazolone challenge. The DTH response is expressed as the difference in the thickness (mm) between the right and the left ears for each animal.
# [4] = day 6, 0.6 mg s.c. daily for 3 days
# [5] = day 7, 0.6 mg s.c. daily for 3 days
# [6] = day 12, 0.6 mg s.c. daily for 3 days
# [7] = day 21, 0.6 mg s.c. daily for 3 days
structure (smiles),measurement,setting,value
"C[C@]12CC[C@H]3[C@@H](CC=C4C[C@@H](O)CC[C@@]43C)[C@@H]1CC[C@@H]2O [3β,17β-dihydroxyandrost-5-ene]",number of animals having febrile severe neutropenia (>40.4° C. and absolute neutrophil count less than 500 cells/μL),"[1]; 15 mg/kg i.m. for 5 days, group of 10, at some time during the protocol",2
same,"days of severe thrombocytopenia (less than 20,000 platelets/μL) experienced collectively","[1]; 15 mg/kg i.m. for 5 days, group of 10, vehicle 51 days, p=0.009",32 days
same,median days of febrile severe neutropenia,"[1]; 15 mg/kg i.m. for 5 days, vehicle median 5 days, p=0.037",0 days
same,animals survived,"[1]; 15 mg/kg i.m. once per day for 5 days, 40 days",9 of 10
same,Mortality,"[1]; 15 mg/kg i.m. once per day for 5 days, control group 40%",10%
same,number of surviving animals,"[2]; day 6, 0.6 mg i.m. daily for 3 days",12
same,number of surviving animals,[2]; [4],12
same,number of surviving animals,"[2]; day 6, 3.0 mg s.c. daily for 3 days",12
same,number of surviving animals,"[2]; day 7, 0.6 mg i.m. daily for 3 days",12
same,number of surviving animals,[2]; [5],11
same,number of surviving animals,"[2]; day 7, 3.0 mg s.c. daily for 3 days",12
same,number of surviving animals,"[2]; day 12, 0.6 mg i.m. daily for 3 days",11
same,number of surviving animals,[2]; [6],10
same,number of surviving animals,"[2]; day 12, 3.0 mg s.c. daily for 3 days",9
same,number of surviving animals,"[2]; day 21, 0.6 mg i.m. daily for 3 days",9
same,number of surviving animals,[2]; [7],7
same,number of surviving animals,"[2]; day 21, 3.0 mg s.c. daily for 3 days",7
"C[C@]12CC[C@H]3[C@@H](CC=C4C[C@@H](O)CC[C@@]43C)[C@@H]1CC[C@@H]2N [3β-hydroxy-17,7-aminoandrost-5-ene]",number of surviving animals,[2]; [4],12
same,number of surviving animals,[2]; [5],12
same,number of surviving animals,[2]; [6],12
same,number of surviving animals,[2]; [7],11
O=P1(N(CCCl)CCCl)NCCCO1 (centres unmarked) [cyclophosphamide],differential ear thickness (DTH response),[3],0.092 mm
C[C@@H]1C[C@H]2[C@@H]3CCC4=CC(=O)C=C[C@]4(C)[C@@]3(F)[C@@H](O)C[C@]2(C)[C@@]1(O)C(=O)CO [dexamethasone],differential ear thickness (DTH response),[3],0.144 mm
